Assay: Stability of the polymorphic form: XRPD, IR and DSC characterization repeated one year later
Assay type: physicochemical
Details: solid from Example 11 (crystallised from 2-propanol)
Experimental: A PHILIPS X′ Pert diffractometer provided with a Cu tube and a secondary monochromator made of graphite (wavelength Kα Cu, 1.5419 Å) was used to record the X-ray powder diffractograms. Reception slot: 0.1 mm; Soller: 0.04 rad; antidiffusion slot and divergence slot: 1°.
2.61 g of Granisetron base is dissolved in 7.0 ml of 2-propanol, and is taken to reflux, when all the product is dissolved, the resultant dissolution is allowed to cool to 15° C. and the resultant solid is filtered and washed with 2-propanol. 2.47 g of Granisetron base is recovered (95%). Said Granisetron base is characterized as Form I with the following data of XRPD, IR and DSC: […]

Stability of polymorphic form (XRPD, IR and DSC characterization repeated, same result obtained): stable
Structure (SMILES): CN1C2CCCC1CC(NC(=O)c1nn(C)c3ccccc13)C2 (stereo not drawn) [Form I of Granisetron base, endo-1-methyl-N-(9-methyl-9-azabicycle[3.3.1]non-3-yl)-1H-indazole-3-carboxamide]

— patent US8304426B2, “Polymorphic form of Granisetron base, methods for obtaining it and formulation containing it” (Inke, S.A., priority 2007, dated 2012)
